Experimental data published in patent publication US20110060026A1, “Indoles Active on CRTH2 Receptor” (priority 2008, published 2011).

Biological target: T1, CRTH2 receptor (Homo sapiens, UniProt Q9Y5Y4)
T1 construct: expressed in transfected cells; host or cells: HEK (human embryonic kidney) cells, membrane preparation
T1 sequence (Q9Y5Y4 1-395): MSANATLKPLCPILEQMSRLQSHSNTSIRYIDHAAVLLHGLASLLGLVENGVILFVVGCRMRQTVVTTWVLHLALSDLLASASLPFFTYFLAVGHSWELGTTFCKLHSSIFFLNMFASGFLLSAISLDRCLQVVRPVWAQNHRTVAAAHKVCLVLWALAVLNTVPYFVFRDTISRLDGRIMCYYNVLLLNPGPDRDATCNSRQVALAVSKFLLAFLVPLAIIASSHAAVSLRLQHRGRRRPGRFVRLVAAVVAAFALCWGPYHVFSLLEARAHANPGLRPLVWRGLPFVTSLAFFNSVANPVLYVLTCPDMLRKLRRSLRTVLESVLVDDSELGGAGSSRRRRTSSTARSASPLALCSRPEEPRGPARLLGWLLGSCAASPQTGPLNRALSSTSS
Test: CRTH2 radioligand binding assay ([3H]-PGD2 displacement, SPA)
Details: HEK cell membranes expressing the CRTH2 receptor, 1 nM [3H]-PGD2; Ki from IC50 by Cheng-Prusoff equation
Description: Compounds of the invention were tested using the following biological test method to determine their ability to displace PGD2 from the CRTH2 receptor.
CRTH2 Radioligand Binding Assay
The receptor binding assay is performed in a final volume of 200 μL binding buffer [10 mM BES (pH 7.4), 1 mM EDTA, 10 mM manganese chloride, 0.01% BSA] and 1 nM [^3H]-PGD2 (Amersham Biosciences UK Ltd). Ligands are added in assay buffer containing a constant amount of DMSO (1% by volume). Total binding is determined using 1% by volume of DMSO in assay buffer and non-specific binding is determined using 10 μM of unlabeled PGD2 (Sigma). Human embryonic kidney (HEK) cell membranes (3.5 μg) expressing the CRTH2 receptor are incubated with 1.5 mg wheatgerm agglutinin SPA beads and 1 nM [^3H]-PGD2 (Amersham Biosciences UK Ltd) and the mixture incubated for 3 hours at room temperature. Bound [^3H]-PGD2 is detected using a Microbeta TRILUX liquid scintillation counter (Perkin Elmer). Compound IC50 value is determined using a 6-point dose response curve in duplicate with a semi-log compound dilution series. IC50 calculations are performed using Excel and XLf it (Microsoft), and this value is used to determine a Ki value for the test compound using the Cheng-Prusoff equation.

Ki: 66 nM
Structure (SMILES): Cc1c(CC(=O)O)c2cc(F)ccc2n1Cc1ccccc1S(=O)(=O)c1ccc(F)cc1 [Example 1, {5-fluoro-1-[2-(4-fluorobenzenesulfonyl)benzyl]-2-methyl-1H-indol-3-yl}acetic acid]
